Columns and labels:
USP4 = target: T1, USP4 (Homo sapiens, UniProt Q13107); experiment: Biochemical DUB selectivity profiling assay: USP4; conditions: Ub-Lys-TAMRA 50 nM, buffer A; read-out: Biochemical IC50 range, USP4
T1 sequence (Q13107 1-963): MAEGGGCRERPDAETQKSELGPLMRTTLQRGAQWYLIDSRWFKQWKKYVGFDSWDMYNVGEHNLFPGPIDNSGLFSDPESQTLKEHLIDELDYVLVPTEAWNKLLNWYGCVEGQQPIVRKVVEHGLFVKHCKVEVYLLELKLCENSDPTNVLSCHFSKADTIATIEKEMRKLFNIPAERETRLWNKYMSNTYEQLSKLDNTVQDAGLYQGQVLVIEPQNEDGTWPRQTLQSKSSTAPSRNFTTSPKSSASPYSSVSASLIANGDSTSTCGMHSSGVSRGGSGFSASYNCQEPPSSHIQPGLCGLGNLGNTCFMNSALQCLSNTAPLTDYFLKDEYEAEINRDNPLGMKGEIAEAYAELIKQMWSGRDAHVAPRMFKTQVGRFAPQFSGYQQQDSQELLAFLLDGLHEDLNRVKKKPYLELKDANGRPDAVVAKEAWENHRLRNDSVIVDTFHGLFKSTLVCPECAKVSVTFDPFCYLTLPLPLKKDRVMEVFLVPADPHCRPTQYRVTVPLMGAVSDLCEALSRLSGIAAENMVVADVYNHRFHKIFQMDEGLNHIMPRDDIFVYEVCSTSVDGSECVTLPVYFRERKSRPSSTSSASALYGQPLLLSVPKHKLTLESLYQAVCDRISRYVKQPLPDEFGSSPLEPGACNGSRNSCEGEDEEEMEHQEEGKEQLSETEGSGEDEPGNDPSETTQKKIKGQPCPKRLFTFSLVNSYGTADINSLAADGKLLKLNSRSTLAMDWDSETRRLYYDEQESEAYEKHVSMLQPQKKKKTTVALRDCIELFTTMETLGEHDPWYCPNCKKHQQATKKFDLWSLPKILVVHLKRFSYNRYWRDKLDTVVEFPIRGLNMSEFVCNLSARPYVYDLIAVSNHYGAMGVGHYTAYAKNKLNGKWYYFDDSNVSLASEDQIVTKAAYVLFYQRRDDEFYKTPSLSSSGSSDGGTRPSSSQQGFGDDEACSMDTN
Procedure: (§1) DUB Assay Substrate Substrate
(§2) Buffer Concentration (nM) […]
(§3) Sepharose® 4B resin (GE Healthcare).
(§4) 10 kDa molecular weight cut-off (MWCO)).
(§5) Fractions containing protein
(§6) Protein concentration was […]
(§7) reaction volume of 21 μL. […]
(§8) compound (final concentration 5 nM).
(§9) IC50 values were determined
(§10) Biochemical DUB selectivity profiling assays […]
(§11) in 40 µL total reaction volume.

UCHL3 = target: T2, UCHL3 (Homo sapiens, UniProt P15374); experiment: Biochemical DUB selectivity profiling assay: UCHL3; conditions: Ub-Lys-TAMRA 50 nM, buffer A; read-out: Biochemical IC50 range, UCHL3
T2 sequence (P15374 1-230): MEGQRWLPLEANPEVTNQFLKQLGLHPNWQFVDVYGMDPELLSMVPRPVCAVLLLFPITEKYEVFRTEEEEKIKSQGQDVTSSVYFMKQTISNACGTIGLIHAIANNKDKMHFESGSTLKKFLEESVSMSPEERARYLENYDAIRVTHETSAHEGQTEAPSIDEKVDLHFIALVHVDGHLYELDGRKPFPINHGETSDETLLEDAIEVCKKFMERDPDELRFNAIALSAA
Procedure: as §1, §2, §3, §4, §5, §6, §7, §8, §9, §10, §11

UCHL1 = target: T3, UCHL1 (Homo sapiens, UniProt P09936); experiment: biochemical
T3 sequence (P09936 1-223): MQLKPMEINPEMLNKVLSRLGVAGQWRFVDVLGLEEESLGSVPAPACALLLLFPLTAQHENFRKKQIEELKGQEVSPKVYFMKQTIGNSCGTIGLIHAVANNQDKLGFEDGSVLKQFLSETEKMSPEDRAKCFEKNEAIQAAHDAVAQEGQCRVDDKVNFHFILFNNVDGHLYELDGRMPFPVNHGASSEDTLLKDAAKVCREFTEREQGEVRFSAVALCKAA

USP22 = target: T4, USP22 (Homo sapiens, UniProt Q9UPT9); experiment: Biochemical DUB selectivity profiling assay: USP22; conditions: Ub-Rho110 400 nM, buffer B; read-out: Biochemical IC50 range, USP22
T4 sequence (Q9UPT9 1-525): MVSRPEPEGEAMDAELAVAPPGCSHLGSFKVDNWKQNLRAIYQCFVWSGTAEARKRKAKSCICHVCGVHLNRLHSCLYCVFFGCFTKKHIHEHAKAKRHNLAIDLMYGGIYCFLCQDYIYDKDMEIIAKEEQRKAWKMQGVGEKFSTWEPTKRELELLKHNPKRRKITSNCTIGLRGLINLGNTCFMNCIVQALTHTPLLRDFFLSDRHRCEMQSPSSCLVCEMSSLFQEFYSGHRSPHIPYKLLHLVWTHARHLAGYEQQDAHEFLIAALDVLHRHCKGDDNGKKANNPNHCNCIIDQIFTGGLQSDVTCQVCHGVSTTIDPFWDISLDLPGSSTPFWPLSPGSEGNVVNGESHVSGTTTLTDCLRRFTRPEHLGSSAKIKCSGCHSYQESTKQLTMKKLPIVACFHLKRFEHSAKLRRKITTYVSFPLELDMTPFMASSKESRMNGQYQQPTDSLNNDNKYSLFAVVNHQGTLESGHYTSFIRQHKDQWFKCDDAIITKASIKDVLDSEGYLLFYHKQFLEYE
T4 sequence (Q14CW9 1-347 partner): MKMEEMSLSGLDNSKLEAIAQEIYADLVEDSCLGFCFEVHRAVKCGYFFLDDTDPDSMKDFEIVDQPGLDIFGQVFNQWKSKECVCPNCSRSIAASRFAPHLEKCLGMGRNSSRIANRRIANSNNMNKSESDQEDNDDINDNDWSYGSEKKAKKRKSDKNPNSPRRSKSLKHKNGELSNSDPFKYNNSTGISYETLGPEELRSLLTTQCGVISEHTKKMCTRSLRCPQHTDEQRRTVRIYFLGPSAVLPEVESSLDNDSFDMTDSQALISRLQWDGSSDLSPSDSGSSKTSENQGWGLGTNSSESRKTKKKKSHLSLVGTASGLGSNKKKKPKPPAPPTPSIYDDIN
T4 sequence (Q9NPA8 1-101 partner): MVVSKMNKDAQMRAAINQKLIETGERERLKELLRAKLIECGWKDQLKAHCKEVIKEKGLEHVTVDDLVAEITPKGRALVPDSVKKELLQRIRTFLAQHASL
Procedure: as §1, §2, §3, §4, §5, §6, §7, §8, §9, §10, §11

[1] = Biochemical IC50 range, UCHL1, Ub-Lys-TAMRA 50 nM, buffer A
[2] = UCHL1 IC50 (FP, 95% CI), UCHL1 5 nM, 30 min preincubation, Ub-Lys-TAMRA 50 nM

IC50 (USP4)	IC50 (UCHL3)	IC50 (UCHL1; [1])	IC50 (UCHL1; [2])	IC50 (USP22)	IC50 (UCHL1; UCHL1 IC50 (FP), UCHL1 5 nM, 30 min preincubation, Ub-Lys-TAMRA 50 nM, bound = maximum assay concentration)	Structure (SMILES)
> 10 µM	1 to 10 µM	< 0.1 µM	0.09 µM	> 10 µM	–	N#CN1CCC[C@H]1C(=O)N1CCc2c(-c3c[nH]c4ncccc34)cccc21 [Compound 1]
> 10 µM	1 to 10 µM	< 0.1 µM	0.038 µM	> 10 µM	–	C#Cc1cnc2[nH]cc(-c3cccc4c3CCN4C(=O)[C@@H]3CCCN3C#N)c2c1 [Compound 2]
> 10 µM	> 10 µM	> 10 µM	–	> 10 µM	> 100 µM	N#CN1CCC[C@@H]1C(=O)N1CCc2c(-c3c[nH]c4ncccc34)cccc21 [Compound 3]

Structure (SMILES)	IC50 (USP4)	IC50 (UCHL3)	IC50 (UCHL1; [1])	IC50 (UCHL1; [2])	IC50 (USP22)	IC50 (UCHL1; UCHL1 IC50 (FP), UCHL1 5 nM, 30 min preincubation, Ub-Lys-TAMRA 50 nM, bound = maximum assay concentration)
CC(=O)O/N=C1\C(=O)N(Cc2cc(Cl)ccc2Cl)c2ccc(Cl)cc21 [LDN-57444, reference compound]	> 10 µM	> 10 µM	–	–	> 10 µM	–

Reference: publication PMC7366380, “Discovery of a Potent and Selective Covalent Inhibitor and Activity-Based Probe for the Deubiquitylating Enzyme UCHL1, with Antifibrotic Activity” (Journal of the American Chemical Society, 2020)
